Read-outs that look alike come from different tables or passages of the source.
Tests used:
[1] = target: T1, Clonorchis sinensis omega-class glutathione transferase 1 (CsGSTo1) (Clonorchis sinensis, UniProt A0A192IBN1); test: spectrophotometric GST activity of purified enzyme (specific activity); format: biochemical
T1 construct: full-length recombinant (246 amino acids), His-tag removed; GenBank KX163088
T1 sequence (A0A192IBN1 1-246): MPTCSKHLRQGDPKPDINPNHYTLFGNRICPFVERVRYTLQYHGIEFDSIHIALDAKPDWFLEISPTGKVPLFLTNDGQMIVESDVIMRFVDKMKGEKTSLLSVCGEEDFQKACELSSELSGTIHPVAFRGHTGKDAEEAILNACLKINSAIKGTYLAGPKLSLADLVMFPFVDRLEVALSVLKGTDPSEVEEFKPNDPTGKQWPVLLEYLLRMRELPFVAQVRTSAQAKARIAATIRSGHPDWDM

[2] = target: T2, Clonorchis sinensis omega-class glutathione transferase 2 (CsGSTo2) (Clonorchis sinensis, UniProt G7YE46); test: as above; format: biochemical
T2 construct: gene CLF_105746; full-length recombinant (223 amino acids), His-tag removed; GenBank KX163089
T2 sequence (G7YE46 1-223): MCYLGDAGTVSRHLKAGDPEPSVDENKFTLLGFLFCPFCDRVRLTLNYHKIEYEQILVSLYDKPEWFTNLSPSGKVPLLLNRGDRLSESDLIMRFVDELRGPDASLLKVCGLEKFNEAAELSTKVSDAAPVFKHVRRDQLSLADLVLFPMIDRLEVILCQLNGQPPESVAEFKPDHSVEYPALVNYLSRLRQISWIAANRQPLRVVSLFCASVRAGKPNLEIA

[3] = target: T1, Clonorchis sinensis omega-class glutathione transferase 1 (CsGSTo1); test: biochemical; design: DHAR activity inhibition of recombinant CsGSTo, absorbance at 265 nm; Ki from Lineweaver-Burk plots
Protocol: (§1) We determined the inhibition mode of CsGSTos employing SHG and the anthelminthic drug praziquantel (PZQ; Shinpoong, Seoul, Korea). rCsGSTos (each 100 ng) were preincubated with Dulbecco’s PBS supplemented with 10–1,000 μM PZQ or 10–500 nM SHG for 2 min, after which the reaction was initiated by adding 1 mM GSH and 1 mM DHA. The increase in absorbance of the resulting […] was recorded spectrophotometrically at 265 nm. A set of reactions under identical conditions was done for each inhibitor concentration and for controls. To examine the inhibition mode of the specific active sites, rCsGSTos were preincubated with saturating concentrations of GSH (5 mM) for 2 min before conjugating reaction with varying concentrations of DHA (0.01–5 mM). […] All measurements were independently done in triplicate. Data were analyzed by Lineweaver-Burk plots. GST activity was spectrophotometrically determined employing a panel of substrates (Sigma-Aldrich); 1-chloro-2,4-dinitrobenzene (CDNB; pH 6.5, 340 nm), 1,2-dichloro-4-nitrobenzene (DCNB; pH 7.5, 345 nm), [compound left out] (4-NBC; pH 6.5, 310 nm), [compound left out] acetate (4-NPA; pH 7.0, 400 nm), 4-hydroxy nonenal (pH 7.5, 340 nm), cumene hydroperoxide (CHP; pH 6.5, 340 nm) and ethacrynic acid (pH 7.5, 340 nm). The reactions were recorded for 5 min at 25 °C in 100 mM potassium phosphate buffer (pH 7.2, 200 μl) containing each 4 mM substrate and 4 mM GSH. The formation of ascorbate by the glutathione-dependent DHAR was detected in potassium phosphate buffer (50 mM, pH 7.2) supplemented with 1 mM GSH and 0.25 mM dehydroascorbate (DHA) at 265 nm. Thioltransferase activity was assayed using hydroxylethyl disulfide (HEDS, 2 mM) in potassium phosphate buffer (50 mM, pH 7.2) containing 0.2 mM NADPH, 0.5 mM GSH and 0.5 units of glutathione reductase for 2 min at 340 nm. One unit of enzyme activity was defined as the amount of enzyme that catalyzed the formation of one micromole of product per min in the presence of respective substrates. Vmax and appKm were determined by one site saturation assays in ranges of 0.01–5 mM DHA with 5 mM GSH (saturating concentration). We also used variable concentrations of GSH ranging from 0.01–5.0 mM with 5 mM DHA (saturating concentration). Enzyme activity was monitored by changes of absorbance and was converted to specific activity using a molar extinction coefficient (Δε = 5.3). Non-enzymatic reaction was concomitantly monitored and subtracted from the entire reaction rate. All enzyme assays were independently performed in triplicate at 25 °C. Data were analyzed by best fit algorithm in SigmaPlot10.0.1 (Systat, San Diego, CA, USA). […] SHG might act via nucleophilic attack of the active site cysteine on the cysteinyl sulfur of the SHG to form a mixed disulfide with the DHA/GSH moiety with high affinity. […] PZQ might bind to a site other than the active- and glutathione-binding sites and act allosterically. We determined IC50 values of rCsGSTos against SHG and PZQ at a saturating concentration (IC50SC).

[4] = target: T2, Clonorchis sinensis omega-class glutathione transferase 2 (CsGSTo2); test: biochemical; design: DHAR activity inhibition of recombinant CsGSTo, absorbance at 265 nm; Ki from Lineweaver-Burk plots; conditions: for Ki: non-competitive
Protocol: as §1

[5] = substrate: O=C1O[C@H]([C@@H](O)CO)C(=O)C1=O; test: steady-state DHAR kinetics of purified enzyme (apparent Km); format: biochemical, Clonorchis sinensis; conditions: GSH

## O=[N+]([O-])c1ccc(CCl)cc1 [4-NBC, 4-nitrobenzyl chloride]
[1]
  Specific activity (μmol/min/mg) / rGSTo1: 1.42 ± 0.09 µmol/min/mg
[2]
  Specific activity (μmol/min/mg) / rGSTo2: 0.91 ± 0.24 µmol/min/mg

## O=C(C1CCCCC1)N1CC(=O)N2CCc3ccccc3C2C1 (centres unmarked) [PZQ, praziquantel]
[3]
  IC50: 108.4 ± 0.8 µM
[3]; ligand binding site (varied GSH), non-competitive
  Ki: 46.8 µM
[3]; specific active site (varied DHA), non-competitive
  Ki: 44.1 µM
[4]
  IC50: 116.8 ± 0.7 µM
[4]; ligand binding site (varied GSH)
  Ki: 42.8 µM
[4]; specific active site (varied DHA)
  Ki: 38.2 µM

## CCCCCCSC[C@H](NC(=O)CC[C@H](N)C(=O)O)C(=O)NCC(=O)O [SHG, S-hexylglutathione]
[3]
  Ki: 0.00063 µM

B1: Clonorchis sinensis omega-class glutathione transferase 1 (CsGSTo1) (Clonorchis sinensis) (protein)
chain: T1 sequence (A0A192IBN1 1-246)
notes: full-length recombinant (246 amino acids), His-tag removed; GenBank KX163088
[5]
  Km: 210 ± 20 µM
  Vmax: 1.16 ± 0.02 µmol/min/mg
  kcat: 0.48 s⁻¹
  kcat/Km: 2290 M⁻¹ s⁻¹

B2: Clonorchis sinensis omega-class glutathione transferase 2 (CsGSTo2) (Clonorchis sinensis) (protein)
chain: T2 sequence (G7YE46 1-223)
notes: full-length recombinant (223 amino acids), His-tag removed; GenBank KX163089
[5]
  Km: 170 ± 20 µM
  Vmax: 1.08 ± 0.02 µmol/min/mg
  kcat: 0.43 s⁻¹
  kcat/Km: 2530 M⁻¹ s⁻¹

Source: paper PMC4906895, “Clonorchis sinensis omega-class glutathione transferases play major roles in the protection of the reproductive system during maturation and the response to oxidative stress” (Parasites & Vectors, 2016)
